System: HBV (encapsidated HBV DNA, HepG2.2.15 cells)
Experiment: HBV replication inhibition assay, BDNA assay in HepG2.2.15 cells
Type: cell-based
Settings: Activity in BDNA-assay
In short: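 Encapsidated HBV DNA in DNase-treated, proteinase K-lysed supernatant was measured by branched DNA after 6 days' compound exposure, refreshed on day 3, of HepG2.2.15 cells in 0.5% DMSO. Signals normalized to DMSO-treated wells; EC50 from nonlinear regression of inhibition against log concentration.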

Row | Structure (SMILES) | EC50 [nM]
1 | CN1CC(C(O)CCF)Cn2nc3c(c2C1=O)CN(C(=O)Nc1ccc(F)c(Cl)c1)CC3 (centres unmarked) [Compound 115, N-(3-chloro-4-fluoro-phenyl)-8-(3-fluoro-1-hydroxy-propyl)-10-methyl-1-oxo-1,3,4,7,8,9-hexahydropyrido[2,3]pyrazolo[2,4-b][1,4]diazepine-2-carboxamide] | 1 to 100
2 | C=CC(O)C1CN(C)C(=O)c2c3c(nn2C1)CC(C)N(C(=O)Nc1ccc(F)c(C(F)(F)F)c1)C3 [Compound 122_D1, (3R,8S*)—N-(4-fluoro-3-(trifluoromethyl)phenyl)-8-((R*)-1-hydroxyallyl)-3,10-dimethyl-11-oxo-1,3,4,7,8,9,10,11-octahydro-2H-pyrido[4′,3′:3,4]pyrazolo[1,5-a][1,4]diazepine-2-carboxamide] | 1 to 100
3 | C=CC(O)C1CN(C)C(=O)c2c3c(nn2C1)CC(C)N(C(=O)Nc1ccc(F)c(C(F)(F)F)c1)C3 [Compound 122_D2, (3R,8S*)—N-(4-fluoro-3-(trifluoromethyl)phenyl)-8-((S*)-1-hydroxyallyl)-3,10-dimethyl-11-oxo-1,3,4,7,8,9,10,11-octahydro-2H-pyrido[4′,3′:3,4]pyrazolo[1,5-a][1,4]diazepine-2-carboxamide] | 100 to 500
4 | C=CC(O)C1CN(C)C(=O)c2c3c(nn2C1)CC(C)N(C(=O)Nc1ccc(F)c(Br)c1)C3 [Compound 124_D2, (3R,8S*)—N-(3-bromo-4-fluorophenyl)-8-((S*)-1-hydroxyallyl)-3,10-dimethyl-11-oxo-1,3,4,7,8,9,10,11-octahydro-2H-pyrido[4′,3′:3,4]pyrazolo[1,5-a][1,4]diazepine-2-carboxamide] | 1 to 100

Same assay, conditions: Hepatitis B virus, HepG2.2.15, Activity in BDNA-assay

Row | Structure (SMILES) | EC50 [nM]
5 | CN1CC(C(O)CC(F)F)Cn2nc3c(c2C1=O)CN(C(=O)Nc1ccc(F)c(Cl)c1)CC3 (centres unmarked) [Compound 116, N-(3-chloro-4-fluoro-phenyl)-8-(3,3-difluoro-1-hydroxy-propyl)-10-methyl-1-oxo-1,3,4,7,8,9-hexahydropyrido[2,3]pyrazolo[2,4-b][1,4]diazepine-2-carboxamide] | 1 to 100
6 | CC(=O)NCC1CN(C)C(=O)c2c3c(nn2C1)CCN(C(=O)Nc1ccc(F)c(Cl)c1)C3 (centres unmarked) [Compound 117, 8-(acetamidomethyl)-N-(3-chloro-4-fluorophenyl)-10-methyl-11-oxo-1,3,4,7,8,9,10,11-octahydro-2H-pyrido[4′,3′:3,4]pyrazolo[1,5-a][1,4]diazepine-2-carboxamide] | 1 to 100
7 | CN1CC(CNCC(F)F)Cn2nc3c(c2C1=O)CN(C(=O)Nc1ccc(F)c(C#N)c1)CC3 (centres unmarked) [Compound 118, N-(3-cyano-4-fluorophenyl)-8-(((2,2-difluoroethyl)amino)methyl)-10-methyl-11-oxo-1,3,4,7,8,9,10,11-octahydro-2H-pyrido[4′,3′:3,4]pyrazolo[1,5-a][1,4]diazepine-2-carboxamide] | 1 to 100
8 | CN1CC(CNCC(F)F)Cn2nc3c(c2C1=O)CN(C(=O)Nc1ccc(F)c(C(F)(F)F)c1)CC3 (centres unmarked) [Compound 119, 8-(((2,2-difluoroethyl)amino)methyl)-N-(4-fluoro-3-(trifluoromethyl)phenyl)-10-methyl-11-oxo-1,3,4,7,8,9,10,11-octahydro-2H-pyrido[4′,3′:3,4]pyrazolo[1,5-a][1,4] diazepine-2-carboxamide] | 1 to 100
9 | CN1CC(CNCC(F)(F)F)Cn2nc3c(c2C1=O)CN(C(=O)Nc1ccc(F)c(C#N)c1)CC3 (centres unmarked) [Compound 120, N-(3-cyano-4-fluorophenyl)-10-methyl-11-oxo-8-(((2,2,2-trifluoroethyl)amino)methyl)-1,3,4,7,8,9,10,11-octahydro-2H-pyrido[4′,3′:3,4]pyrazolo [1,5-a][1,4]diazepine-2-carboxamide] | 1 to 100
10 | CN1CC(CNCC(F)(F)F)Cn2nc3c(c2C1=O)CN(C(=O)Nc1ccc(F)c(C(F)(F)F)c1)CC3 (centres unmarked) [Compound 121, N-(4-fluoro-3-(trifluoromethyl)phenyl)-10-methyl-11-oxo-8-(((2,2,2-trifluoroethyl)amino)methyl)-1,3,4,7,8,9,10,11-octahydro-2H-pyrido[4′,3′:3,4]pyrazolo[1,5-a][1,4]diazepine-2-carboxamide] | 1 to 100
11 | C=CC(O)C1CN(C)C(=O)c2c3c(nn2C1)CC(C)N(C(=O)Nc1ccc(F)c(Br)c1)C3 [Compound 124_D1, (3R,8S*)—N-(3-bromo-4-fluorophenyl)-8-((R*)-1-hydroxyallyl)-3,10-dimethyl-11-oxo-1,3,4,7,8,9,10,11-octahydro-2H-pyrido[4′,3′:3,4]pyrazolo[1,5-a][1,4]diazepine-2-carboxamide] | 1 to 100
12 | CN1CC2(CC(O)C2)Cn2nc3c(c2C1=O)CN(C(=O)Nc1ccc(F)c(Cl)c1)CC3 (centres unmarked) [Compound 132, N-(3-chloro-4-fluorophenyl)-3-hydroxy-10′-methyl-11′-oxo-1′,3′,4′,9′,10′,11′-hexahydro-2′H,7′H-spiro[cyclobutane-1,8′-pyrido[4′,3′:3,4]pyrazolo [1,5-a][1,4]diazepine]-2′-carboxamide] | 1 to 100
13 | C[C@@H]1Cc2nn3c(c2CN1C(=O)Nc1ccc(F)c(C#N)c1)C(=O)N(C)C[C@@H](COCC(F)F)C3 [Compound 134_D1, (3R,8R)—N-(3-Cyano-4-fluorophenyl)-8-((2,2-difluoroethoxy)methyl)-3,10-dimethyl-11-oxo-1,3,4,7,8,9,10,11-octahydro-2H-pyrido[4′,3′:3,4]pyrazolo[1,5-a][1,4]diazepine-2-carboxamide] | 1 to 100
14 | C[C@@H]1Cc2nn3c(c2CN1C(=O)Nc1ccc(F)c(C(F)(F)F)c1)C(=O)N(C)C[C@@H](COCC(F)F)C3 [Compound 135_D1, (3R,8R)-8-((2,2-difluoroethoxy)methyl)-N-(4-fluoro-3-(trifluoromethyl)phenyl)-3,10-dimethyl-11-oxo-1,3,4,7,8,9,10,11-octahydro-2H-pyrido[4′,3′:3,4]pyrazolo[1,5-a][1,4]diazepine-2-carboxamide] | 1 to 100
15 | C[C@@H]1Cc2nn3c(c2CN1C(=O)Nc1ccc(F)c(C(F)(F)F)c1)C(=O)N(C)C[C@H](COCC(F)F)C3 [Compound 135_D2, (3R,8S)-8-((2,2-difluoroethoxy)methyl)-N-(4-fluoro-3-(trifluoromethyl)phenyl)-3,10-dimethyl-11-oxo-1,3,4,7,8,9,10,11-octahydro-2H-pyrido[4′,3′:3,4]pyrazolo[1,5-a][1,4]diazepine-2-carboxamide] | 1 to 100
16 | C[C@@H]1Cc2nn3c(c2CN1C(=O)Nc1ccc(F)c(C#N)c1)C(=O)N(C)CC(F)(F)C3 [Compound 136, (R)—N-(3-cyano-4-fluorophenyl)-8,8-difluoro-3,10-dimethyl-11-oxo-1,3,4,7,8,9,10,11-octahydro-2H-pyrido[4′,3′:3,4]pyrazolo[1,5-a][1,4]diazepine-2-carboxamide] | 1 to 100
17 | C[C@@H]1Cc2nn3c(c2CN1C(=O)Nc1ccc(F)c(C#N)c1)C(=O)N(C)CC(C)(C)C3 [Compound 139, (R)-N-(3-cyano-4-fluorophenyl)-3,8,8,10-tetramethyl-11-oxo-1,3,4,7,8,9,10,11-octahydro-2H-pyrido[4′,3′:3,4]pyrazolo[1,5-a][1,4]diazepine-2-carboxamide] | 1 to 100
18 | C[C@@H]1Cc2nn3c(c2CN1C(=O)Nc1ccc(F)c(C(F)(F)F)c1)C(=O)N(C)CC(C)(C)C3 [Compound 140, (R)-N-(4-Fluoro-3-(trifluoromethyl)phenyl)-3,8,8,10-tetramethyl-11-oxo-1,3,4,7,8,9,10,11-octahydro-2H-pyrido[4′,3′:3,4]pyrazolo[1,5-a][1,4]diazepine-2-carboxamide] | 1 to 100
19 | C[C@@H]1Cc2nn3c(c2CN1C(=O)Nc1ccc(F)c(C#N)c1)C(=O)N(C)CC1(CC(O)C1)C3 (stereo partly drawn) [Compound 141, (R)-N-(3-Cyano-4-fluorophenyl)-3-hydroxy-3′,10′-dimethyl-11′-oxo-1′,3′,4′,9′,10′,11′-hexahydro-2′H,7′H-spiro[cyclobutane-1,8′-pyrido[4′,3′:3,4]pyrazolo[1,5-a][1,4]diazepine]-2′-carboxamide] | 1 to 100
20 | C[C@@H]1Cc2nn3c(c2CN1C(=O)Nc1ccc(F)c(C#N)c1)C(=O)N(C)CC1(CC(F)C1)C3 (stereo partly drawn) [Compound 142, (R)-N-(3-Cyano-4-fluorophenyl)-3-fluoro-3′,10′-dimethyl-11′-oxo-1′,3′,4′,9′,10′,11′-hexahydro-2′H,7′H-spiro[cyclobutane-1,8′-pyrido[4′,3′:3,4]pyrazolo[1,5-a][1,4]diazepine]-2′-carboxamide] | 1 to 100
21 | C[C@@H]1Cc2nn3c(c2CN1C(=O)Nc1ccc(F)c(C#N)c1)C(=O)N(C)CC1(C3)CC(F)(F)C1 [Compound 143, (R)-N-(3-Cyano-4-fluorophenyl)-3,3-difluoro-3′,10′-dimethyl-11′-oxo-1′,3′,4′,9′,10′,11′-hexahydro-2′H,7′H-spiro[cyclobutane-1,8′-pyrido[4′,3′:3,4]pyrazolo[1,5-a][1,4]diazepine]-2′-carboxamide] | 1 to 100
22 | C[C@@H]1Cc2nn3c(c2CN1C(=O)Nc1ccc(F)c(C#N)c1)C(=O)N(C)[C@H](CF)C3 [Compound 149, (3R,8S)-N-(3-cyano-4-fluorophenyl)-8-(fluoromethyl)-3,9-dimethyl-10-oxo-3,4,7,8,9,10-hexahydropyrido[4′,3′:3,4]pyrazolo[1,5-a]pyrazine-2(1H)-carboxamide] | 1 to 100
23 | C[C@@H]1Cc2nn3c(c2CN1C(=O)Nc1ccc(F)c(C#N)c1)C(=O)N(C)[C@H](COCC(F)F)C3 [Compound 150, (3R,8S)-N-(3-cyano-4-fluorophenyl)-8-((2,2-difluoroethoxy)methyl)-3,9-dimethyl-10-oxo-3,4,7,8,9,10-hexahydropyrido[4′,3′:3,4]pyrazolo[1,5-a]pyrazine-2(1H)-carboxamide] | 1 to 100

— patent publication US10975077B2 (Novira Therapeutics, Inc., priority 2016, dated 2021)
